Measured values: patent EP4595972A1, “PEPTIDE FOR TREATING OR PREVENTING 4R TAUOPATHY” (GemVax & KAEL Co., Ltd., priority 2022, dated 2024)

Tested on: AT8 (phospho-Tau S202/T205)
Experiment: AT8 immunofluorescent staining of brain tissues (tau hyperphosphorylation)
Assay type: in vivo, mouse
Description: • 1) Experimental method for brain tissue sampling • (1) On day 1, after completing 63 times administration schedule, the mice of TauP301L-BiFC mouse model were anesthetized, followed by preparing heart laparotomy. • (2) Saline was introduced into the heart of each mouse in the TauP301L-BiFC mouse model, followed by removing vivo blood using a perfusion pump machine. • (3) The brain of the mouse was extracted and weighed. • (4) The brain to be used for tissue staining experiment was immersed in 4% FPA solution and fixed for 24 hours. • (5) On day 2, after completing fixation, the brain tissues were immersed in 20% sucrose solution to remove water for 24 hours. • (6) On day 3, the brain tissues were immersed in 30% sucrose solution to remove water for 48 hours. • (7) On day 5, the brain tissues free of water were taken and extra moisture was removed. Then, the brain tissues and a frozen tissue embedding agent (OCT compound) were placed in a prepared mold, followed by freezing the brain tissues as fast as possible while protecting the tissues. The frozen brain tissue-containing mold was stored in a defreezer at -80°C. Thereafter, using a cryostat for frozen fragment, the tissues were cut into a unit thickness of 30 µm and stored in 0.05% sodium azide solution.
• (1) On day 1, a brain tissue sample having a thickness of 30 µm under cryosection was selected for each brain region, immersed in PBS solution, and then washed three times for 10 minutes. • (3) The sample was fixed in 3.7% formaldehyde for 5 minutes. • (4) The sample was washed in PBS solution three times for 10 minutes. • (5) The brain tissue sample was subjected to permeabilization in 0.3% PBS-T solution. • (6) The sample was immersed in 5% BSA in PBS solution for 1 hour for blocking. • (7) The brain tissues were input into 3% BSA in which primary antibody (AT8) was diluted at a ratio of 1:200, 0.1% Tween-20 in PBS solution, followed by overnight (O/N) binding. • (8) On day 2, the brain tissues were immersed in PBS solution, and washed three times for 10 minutes. • (9) The brain tissues were input into 3% BSA in which secondary antibody was diluted at a ratio of 1:500, 0.1% Tween-20 in PBS solution, followed by binding at room temperature for 1 hour. • (10) The brain tissues were immersed in PBS solution, and washed once for 10 minutes. • (11) The brain tissues were immersed in Hoechst (stock conc., 1mg/mL) diluted at a ratio of 1:2000 in PBS solution, followed by nuclei staining. • (12) The brain tissues were immersed in PBS solution, and washed three times for 10 minutes. • (13) Brain tissue fluorescent imaging was performed using a slide scanner.
• (1) In order to obtain fluorescent images of the stained brain tissues, a brain tissue slide was scanned using Zeiss Axio Scan (Zeiss, Oberkochen, Germany). • BiFC fluorescence: λex=460-490 nm, λem=500-550 nm • AT8 fluorescence: λex=620-640 nm, λem=650-700 nm • Hoechst fluorescence: λex=330-375 nm, λem=430-470 nm • (3) For brain tissues per site obtained through imaging, fluorescent value was calculated through Image J software (NIH).

[1] = LMTM 15 mg/kg oral vs. vehicle, decrease (in parentheses)
[2] = LMTM 15 mg/kg oral vs. vehicle, decrease (in parentheses), *p<0.05

`CN(C)c1ccc2c(c1)Sc1cc(N(C)C)ccc1N2.CS(=O)(=O)O.CS(=O)(=O)O` [LMTM] was tested, and the “AT8 fluorescent level, Somatosensory cortex” value [1] was “(31 %)”, the “AT8 fluorescent level, Substantia nigra” value [1] was “(16 %)” and the “AT8 fluorescent level, Hippocampus” value [2] was “(28 %)*”. The “AT8 fluorescent level, Motor cortex” value [2] was “(26 %)*” and the “AT8 fluorescent level as compared to the vehicle group, in words” value (LMTM 15 mpk) was “significantly reduced in the somatosensory cortex, motor cortex and hippocampus regions”.
